This is an account of results in US9796686B2, “Antibacterial quinazoline-4(3H)-one derivatives” (priority 2014, dated 2017).

Molecules are shown by their SMILES. In brackets after ≈: the same amount, converted by molar mass.

Experiment in all cases: Bacterial growth minimal inhibitory concentration, microdilution in cation-adjusted Mueller-Hinton Broth (CLSI M7-A7)
Holding throughout (assay type): cell-based

Assay [1] relates to K. pneumoniae A-651. To be noted: multiply-resistant strain (in particular quinolone-resistant); for MIC: Klebsiella pneumoniae, A651, read-out: MIC for K. Pneumoniae A-651. The method, then: (§1) Minimal Inhibitory Concentrations (MICs; mg/L) were determined in cation-adjusted Mueller-Hinton Broth by a microdilution method following the description given in “Methods for Dilution Antimicrobial Susceptibility Tests for Bacteria that Grow Aerobically”, Approved standard, 7th ed., Clinical and Laboratory Standards Institute (CLSI) Document M7-A7, Wayne, Pa., U.S.A. (2006).
(§2) All Example compounds were tested against several Gram-positive and Gram-negative bacteria. […] K. pneumoniae A-651 is a multiply-resistant strain (in particular quinolone-resistant), while E. coli ATCC25922 and P. aeruginosa ATCC27853 are quinolone-sensitive strains.

In assay [2] the test system is E. coli ATCC25922. To be noted: quinolone-sensitive strain; for MIC: Escherichia coli, ATCC25922, read-out: MIC for E. coli ATCC25922. The procedure:
as §1, §2

Assay [3] concerns P. aeruginosa ATCC27853. To be noted: quinolone-sensitive strain; for MIC: Pseudomonas aeruginosa, ATCC27853, read-out: MIC for P. aeruginosa ATCC27853. The procedure:
as §1, §2

In the case of `C[C@@](CCn1cnc2cc(C#CC#CC3(CO)CC3)c(F)cc2c1=O)(C(=O)NO)S(C)(=O)=O` [Example 12, (R)-4-(6-fluoro-7-((1-(hydroxymethyl)cyclopropyl)buta-1,3-diyn-1-yl)-4-oxoquinazolin-3(4H)-yl)-N-hydroxy-2-methyl-2-(methylsulfonyl)butanamide], the minimal inhibitory concentration (MIC) in assay [1] was 0.5 µg/mL (≈ 1.05 µM); in assay [2], 0.25 µg/mL (≈ 0.526 µM); in assay [3], 2 µg/mL (≈ 4.21 µM).
`C[C@@](CCn1cnc2cc(-c3ccccc3)ccc2c1=O)(C(=O)NO)S(C)(=O)=O` (single isomer, unassigned) [Example 2]: the minimal inhibitory concentration (MIC) in assay [1] is at most 0.063 µg/mL; in assay [2] it was 0.25 µg/mL (≈ 0.602 µM); in assay [3] it was 8 µg/mL (≈ 19.3 µM).
Taken in the same sequence, the figures for `C[C@@](CCn1cnc2cc(C#CC#CC3(C(O)CO)CC3)ccc2c1=O)(C(=O)NO)S(C)(=O)=O` (mixture of isomers) [Example 19, (2R)-4-(7-((1-((RS)-1,2-dihydroxyethyl)cyclopropyl)buta-1,3-diyn-1-yl)-4-oxoquinazolin-3(4H)-yl)-N-hydroxy-2-methyl-2-(methylsulfonyl)butanamide] were 32 µg/mL, 8 µg/mL and 8 µg/mL.
Consider `C[C@@]1(C#CC#Cc2ccc3c(=O)n(CC[C@](C)(C(=O)NO)S(C)(=O)=O)cnc3c2)C[C@H]1CO` [Example 20, (R)-N-hydroxy-4-(7-(((1R,2R)-2-(hydroxymethyl)-1-methylcyclopropyl)buta-1,3-diyn-1-yl)-4-oxoquinazolin-3(4H)-yl)-2-methyl-2-(methylsulfonyl)butanamide], for which the MIC in assay [1] turned out to be 0.5 µg/mL (≈ 1.06 µM); in assay [2], 0.125 µg/mL (≈ 0.265 µM); in assay [3], 1 µg/mL (≈ 2.12 µM).
Taken in the same sequence, the figures for `C[C@@](CCn1cnc2cc(C#CC#CC3(CO)CC3)ccc2c1=O)(C(=O)NO)S(C)(=O)=O` [Example 6, (R)-N-hydroxy-4-(7-((1-(hydroxymethyl)cyclopropyl)buta-1,3-diyn-1-yl)-4-oxoquinazolin-3(4H)-yl)-2-methyl-2-(methylsulfonyl)butanamide] were 1 µg/mL (≈ 2.19 µM), 0.25 µg/mL (≈ 0.546 µM) and 2 µg/mL (≈ 4.37 µM).
For `C[C@@](CCn1cnc2cc(C#CC#C[C@@H]3C[C@H]3CN)c(F)cc2c1=O)(C(=O)NO)S(C)(=O)=O.Cl` [Example 28, (R)-4-(7-(((1R,2R)-2-(aminomethyl)cyclopropyl)buta-1,3-diyn-1-yl)-6-fluoro-4-oxoquinazolin-3(4H)-yl)-N-hydroxy-2-methyl-2-(methylsulfonyl)butanamide hydrochloride], the MIC in assay [1], in assay [2] and in assay [3] was 8 µg/mL in each case.
Take `C[C@@](CCn1cnc2c(F)c(C#CC#C[C@H]3C[C@@H]3CO)ccc2c1=O)(C(=O)NO)S(C)(=O)=O` [Example 23, (R)-4-(8-fluoro-7-(((1S,2S)-2-(hydroxymethyl)cyclopropyl)buta-1,3-diyn-1-yl)-4-oxoquinazolin-3(4H)-yl)-N-hydroxy-2-methyl-2-(methylsulfonyl)butanamide]: the MIC in assay [1] came to 0.5 µg/mL (≈ 1.05 µM); in assay [2], 0.5 µg/mL (≈ 1.05 µM); in assay [3] it was 4 µg/mL (≈ 8.41 µM).
`C[C@@](CCn1cnc2cc(C#CC#CC3(O)COC3)ccc2c1=O)(C(=O)NO)S(C)(=O)=O` [Example 4, (R)-N-hydroxy-4-(7-((3-hydroxyoxetan-3-yl)buta-1,3-diyn-1-yl)-4-oxoquinazolin-3(4H)-yl)-2-methyl-2-(methylsulfonyl)butanamide]: the minimum inhibitory concentration (MIC) in assay [1], in assay [2] and in assay [3] was 4 µg/mL (≈ 8.71 µM) in each case.
In the case of `C[C@@](CCn1cnc2cc(C#CC#CC3CCC(NC(=O)CN)C3)c(F)cc2c1=O)(C(=O)NO)S(C)(=O)=O.Cl` (stereo partly drawn) [Example 27, (R)-4-(7-((3-(2-aminoacetamido)cyclopentyl)buta-1,3-diyn-1-yl)-6-fluoro-4-oxoquinazolin-3(4H)-yl)-N-hydroxy-2-methyl-2-(methylsulfonyl)butanamide hydrochloride], the MIC in assay [1] is 4 µg/mL; in assay [2], 1 µg/mL; in assay [3], 8 µg/mL.
For the compound `C[C@@]1(CO)C[C@H]1C#CC#Cc1ccc2c(=O)n(CC[C@](C)(C(=O)NO)S(C)(=O)=O)cnc2c1` [Example 17, (R)-N-hydroxy-4-(7-(((1S,2R)-2-(hydroxymethyl)-2-methylcyclopropyl)buta-1,3-diyn-1-yl)-4-oxoquinazolin-3(4H)-yl)-2-methyl-2-(methylsulfonyl)butanamide], the MIC in assay [1] was 0.125 µg/mL (≈ 0.265 µM); in assay [2], at most 0.063 µg/mL; in assay [3], 0.5 µg/mL (≈ 1.06 µM).
On to `C[C@@](CCn1cnc2cc(C#CC#C[C@@H]3C[C@@H](O)[C@@H](O)C3)ccc2c1=O)(C(=O)NO)S(C)(=O)=O` [Example 15, (R)-4-(7-(((1s,3R,4S)-3,4-dihydroxycyclopentyl)buta-1,3-diyn-1-yl)-4-oxoquinazolin-3(4H)-yl)-N-hydroxy-2-methyl-2-(methylsulfonyl)butanamide], for which, in assay [1], the “MIC for K. Pneumoniae A-651” value was 1 µg/mL. Besides, in assay [2], the “MIC for E. coli ATCC25922” value came out at 1 µg/mL. Also, in assay [3], the “MIC for P. aeruginosa ATCC27853” value is 2 µg/mL.
As to `C[C@@](CCn1cnc2cc(C#CC#C[C@@H]3C[C@H]3CO)c(F)cc2c1=O)(C(=O)NO)S(C)(=O)=O` [Example 11, (R)-4-(6-fluoro-7-(((1R,2R)-2-(hydroxymethyl)cyclopropyl)buta-1,3-diyn-1-yl)-4-oxoquinazolin-3(4H)-yl)-N-hydroxy-2-methyl-2-(methylsulfonyl)butanamide], the MIC in assay [1] is 0.25 µg/mL (≈ 0.526 µM); in assay [2], at most 0.063 µg/mL; in assay [3] it was 1 µg/mL (≈ 2.1 µM).
In the case of `C[C@@](CCn1cnc2cc(C#CC#C[C@H]3C[C@@H]3CO)ccc2c1=O)(C(=O)NO)S(C)(=O)=O` [Example 3, (R)-N-hydroxy-4-(7-(((1S,2S)-2-(hydroxymethyl)cyclopropyl)buta-1,3-diyn-1-yl)-4-oxoquinazolin-3(4H)-yl)-2-methyl-2-(methylsulfonyl)butanamide], the MIC came out at 0.5 µg/mL (≈ 1.09 µM) in assay [1], 0.125 µg/mL (≈ 0.273 µM) in assay [2] and 1 µg/mL (≈ 2.19 µM) in assay [3].
Regarding `CN(C)c1ccc(-c2ccc3c(=O)n(CCC(C)(C(=O)NO)S(C)(=O)=O)cnc3c2)cc1` (racemic) [RE6, (RS)-4-(7-(4-(dimethylamino)phenyl)-4-oxoquinazolin-3(4H)-yl)-N-hydroxy-2-methyl-2-(methylsulfonyl)butanamide], the minimal inhibitory concentration (MIC) was determined as 0.125 µg/mL (≈ 0.273 µM) in assay [1], 0.125 µg/mL (≈ 0.273 µM) in assay [2] and 16 µg/mL (≈ 34.9 µM) in assay [3].
`C[C@@](CCn1cnc2cc(C#Cc3ccc([C@@H](O)CO)cc3)ccc2c1=O)(C(=O)NO)S(C)(=O)=O` [Example 18, (R)-4-(7-((4((R)-1,2-dihydroxyethyl)phenyl)ethynyl)-4-oxoquinazolin-3(4H)-yl)-N-hydroxy-2-methyl-2-(methylsulfonyl)butanamide]: the MIC came to 2 µg/mL (≈ 4 µM) in assay [1], 0.5 µg/mL (≈ 1 µM) in assay [2] and 4 µg/mL (≈ 8.01 µM) in assay [3].
For the compound `COc1ccc(-c2ccc3c(=O)n(CCC(C)(C(=O)NO)S(C)(=O)=O)cnc3c2)cc1F` (racemic) [RE5, (RS)-4-(7-(3-fluoro-4-methoxyphenyl)-4-oxoquinazolin-3(4H)-yl)-N-hydroxy-2-methyl-2-(methylsulfonyl)butanamide], the MIC in assay [1] came to 1 µg/mL (≈ 2.16 µM); in assay [2], 0.25 µg/mL (≈ 0.539 µM); in assay [3], 16 µg/mL (≈ 34.5 µM).
For the compound `C[C@@](CCn1cnc2cc(C#CC#CC34CC(CO)(C3)C4)ccc2c1=O)(C(=O)NO)S(C)(=O)=O` [Example 13, (R)-N-hydroxy-4-(7-((3-(hydroxymethyl)bicyclo[1.1.1]pentan-1-yl)buta-1,3-diyn-1-yl)-4-oxoquinazolin-3(4H)-yl)-2-methyl-2-(methylsulfonyl)butanamide], the figures for the MIC in assay [1], in assay [2] and in assay [3] were 0.25 µg/mL (≈ 0.517 µM), 0.125 µg/mL (≈ 0.259 µM) and 0.5 µg/mL (≈ 1.03 µM), respectively.
Take `COc1ccc(-c2ccc3c(=O)n(CC[C@](C)(C(=O)NO)S(C)(=O)=O)cnc3c2)c(F)c1` (single isomer, unassigned) [Example 1]: the MIC in assay [1] is 0.25 µg/mL (≈ 0.539 µM); in assay [2] it was at most 0.063 µg/mL; in assay [3] it was 4 µg/mL (≈ 8.63 µM).
Turning to `CC(CCn1cnc2cc(-c3ccc(CN4CCOCC4)cc3)ccc2c1=O)(C(=O)NO)S(C)(=O)=O.O=CO` (racemic) [RE8, (RS)-N-hydroxy-2-methyl-2-(methylsulfonyl)-4-(7-(4-(morpholinomethyl)phenyl)-4-oxoquinazolin-3(4H)-yl)butanamide formate], the minimum inhibitory concentration (MIC) turned out to be 2 µg/mL in assay [1], 1 µg/mL in assay [2] and 16 µg/mL in assay [3].
On to `CC(CCn1cnc2cc(-c3ccc(CO)cc3)ccc2c1=O)(C(=O)NO)S(C)(=O)=O` (racemic) [RE7, (RS)-N-hydroxy-4-(7-(4-(hydroxymethyl)phenyl)-4-oxoquinazolin-3(4H)-yl)-2-methyl-2-(methylsulfonyl)butanamide], for which the minimal inhibitory concentration (MIC) in assay [1] was determined as 8 µg/mL (≈ 18 µM); in assay [2], 2 µg/mL (≈ 4.49 µM); in assay [3], 16 µg/mL (≈ 35.9 µM).
The like results for `CN(C)CC#CC#Cc1cc2ncn(CC[C@](C)(C(=O)NO)S(C)(=O)=O)c(=O)c2cc1F.O=CO` [Example 32, (R)-4-(7-(5-(dimethylamino)penta-1,3-diyn-1-yl)-6-fluoro-4-oxoquinazolin-3(4H)-yl)-N-hydroxy-2-methyl-2-(methylsulfonyl)butanamide formate] were, in that order, 0.5 µg/mL, 0.25 µg/mL and 2 µg/mL.
